One experiment deals with MIA PaCa-2 cell. In words: Cell proliferation assay (Celltiter-Glo), MIA PaCa-2. It is filed as cell-based. The note with it: Homo sapiens, MIA PaCa-2, 72 h, 3 days. As for the experimental part:
(§1) Cell Proliferation Assay:
(§2) NCI-H358 cell and MIA PaCa-2 cell was cultured in RPMI-1640 supplemented with 10% FBS in humidified incubator at 37° C., 5% CO2. To asses the effect of Compounds of the Disclosure on cell proliferation, exponentially growing cells (5000 cells/well) were plated onto 96-well plates. After cell seeding, a representative Compounds of the Disclosure were added to the cell media (in concentrations ranging from 0 to 10 μM, 3/dilution series). After 3 days, 30 μL Celltiter-Glo reagent was added, and the luminescent signal was determined according to supplier's instruction. The dose response curves and IC50 values were generated using Prism.
For orientation: Cellular ATP, detected with luciferase, serves as a proxy for viable cell number.

The next experiment has as its system NCI-H358 cell. In words: Cell proliferation assay (Celltiter-Glo), NCI-H358. Particulars: Homo sapiens, NCI-H358, 72 h, 3 days. In kind it is cell-based. As for the experimental part:
as §1, §2

This passage reports IC50 results from patent US11312724B2 (ASCENTAGE PHARMA (SUZHOU) CO., LTD., priority 2021, dated 2022).

By IC50 is commonly meant the concentration that gives 50% inhibition. Low readings indicate greater potency, high ones weaker potency.

Each structure is given as a SMILES string.

With `C=C(F)C(=O)N1CCN(c2nc(OC[C@@H]3CCCN3C)nc3c2CCC2(COCc4cccc(F)c42)C3)C[C@@H]1CC#N` (stereo partly drawn), the IC50 was determined as 810 nM in the experiment on MIA PaCa-2 cell and 660 nM in the experiment on NCI-H358 cell.
As to `C=CC(=O)N1CCN(c2nc(OC[C@@H]3CCCN3C)nc3c2CC[C@]2(CCCc4ccccc42)C3)C[C@@H]1CC#N` (single isomer, unassigned) [Cpd. No. 1], the values for the IC50 in the experiment with MIA PaCa-2 cell and in the experiment on NCI-H358 cell were 3.6 nM and 16 nM, respectively.
For the compound `C=CC(=O)N1CCN(c2nc(OC[C@@H]3CCCN3C)nc3c2CC[C@@]2(CCCc4ccccc42)C3)C[C@@H]1CC#N` (single isomer, unassigned) [Cpd. No. 2], the IC50 with MIA PaCa-2 cell was determined as 76 nM; in the experiment with NCI-H358 cell it was 440 nM.
For `C=CC(=O)N1CCN(c2nc(OCC3CCCN3C)nc3c2CC[C@]2(CCc4ccccc42)C3)C[C@@H]1CC#N` (single isomer, unassigned) [Cpd. No. 4], in that order: 5 nM and 13 nM.
Turning to `C=CC(=O)N1CCN(c2nc(OCC3CCCN3C)nc3c2CC[C@@]2(CCc4ccccc42)C3)C[C@@H]1CC#N` (single isomer, unassigned) [Cpd. No. 5], the IC50 worked out at 400 nM with MIA PaCa-2 cell and 520 nM in the experiment with NCI-H358 cell.
As for `C=CC(=O)N1CCN(c2nc(OC[C@@H]3[C@@H]4C[C@@H]4CN3C)nc3c2CC[C@@]2(CCc4c(Cl)cccc42)C3)C[C@@H]1CC#N` (single isomer, unassigned) [Cpd. No. 47], the concentration for half-maximal inhibition (IC50) with MIA PaCa-2 cell is 4.9 nM; in the experiment with NCI-H358 cell it was 15 nM.
In the case of `C=CC(=O)N1CCN(c2nc(OC[C@@H]3[C@H]4C[C@H]4CN3C)nc3c2CC[C@@]2(CCc4c(Cl)cccc42)C3)C[C@@H]1CC#N` (single isomer, unassigned) [Cpd. No. 48], the IC50 stood at 4.3 nM in the experiment with MIA PaCa-2 cell and 6 nM in the experiment with NCI-H358 cell.
With `C=CC(=O)N1CCN(c2nc(OC[C@@H]3CCCN3C)nc3c2CCC2(CCCc4ccccc42)C3)C[C@H]1CC#N` (stereo partly drawn) [Cpd. No. 3, 2-((2R)-1-acryloyl-4-(2′-(((S)-1-methylpyrrolidin-2-yl)methoxy)-3,4,5′,8′-tetrahydro-2H,6′H-spiro[naphthalene-1,7′-quinazolin]-4′-yl)piperazin-2-yl)acetonitrile], the IC50 in the experiment on MIA PaCa-2 cell was found to be 140 nM; with NCI-H358 cell it was 290 nM.
For `C=CC(=O)N1CCN(c2nc(OC[C@@H]3CCCN3C)nc3c2CCC2(C3)OCCc3ccccc32)C[C@@H]1CC#N` (stereo partly drawn) [Cpd. No. 6, 2-((2S)-1-acryloyl-4-(2′-(((S)-1-methylpyrrolidin-2-yl)methoxy)-5′,8′-dihydro-6′H-spiro[isochromane-1,7′-quinazolin]-4′-yl)piperazin-2-yl)acetonitrile], in that order: 170 nM and 210 nM.
The matching figures for `C=CC(=O)N1CCN(c2nc(OC[C@@H]3CCCN3C)nc3c2CCC2(CCCc4ccccc42)C3)CC1` (stereo partly drawn) [Cpd. No. 7, 1-(4-(2′-(((S)-1-methylpyrrolidin-2-yl)methoxy)-3,4,5′,8′-tetrahydro-2H,6′H-spiro[naphthalene-1,7′-quinazolin]-4′-yl)piperazin-1-yl)prop-2-en-1-one]: 850 nM and 1390 nM.
Take `C=CC(=O)N1CCN(c2nc(OC[C@@H]3CCCN3C)nc3c2CCC2(CCCc4ccccc42)C3)[C@@H](C)C1` (stereo partly drawn) [Cpd. No. 8, 1-((3S)-3-methyl-4-(2′-(((S)-1-methylpyrrolidin-2-yl)methoxy)-3,4,5′,8′-tetrahydro-2H,6′H-spiro[naphthalene-1,7′-quinazolin]-4′-yl)piperazin-1-yl)prop-2-en-1-one]: the concentration for half-maximal inhibition (IC50) in the experiment with MIA PaCa-2 cell is 500 nM; with NCI-H358 cell, 940 nM.
Turning to `C=CC(=O)N1CCN(c2nc(OC[C@@H]3CCCN3C)nc3c2CCC2(CCc4ccccc42)C3)CC1` (stereo partly drawn) [Cpd. No. 9, 1-(4-(2′-(((S)-1-methylpyrrolidin-2-yl)methoxy)-2,3,5′,8′-tetrahydro-6′H-spiro[indene-1,7′-quinazolin]-4′-yl)piperazin-1-yl)prop-2-en-1-one], the figures for the IC50 in the experiment on MIA PaCa-2 cell and in the experiment on NCI-H358 cell were 1730 nM and 3270 nM, respectively.
Take `C=CC(=O)N1CCN(c2nc(OC[C@@H]3CCCN3C)nc3c2CCC2(CCc4ccccc42)C3)[C@@H](C)C1` (stereo partly drawn) [Cpd. No. 10, 1-((3S)-3-methyl-4-(2′-(((S)-1-methylpyrrolidin-2-yl)methoxy)-2,3,5′,8′-tetrahydro-6′H-spiro[indene-1,7′-quinazolin]-4′-yl)piperazin-1-yl)prop-2-en-1-one]: the half-inhibitory concentration (IC50) in the experiment with MIA PaCa-2 cell is 1180 nM; in the experiment on NCI-H358 cell, 2230 nM.
As for `C=CC(=O)N1CCN(c2nc(OC[C@@H]3CCCN3C)nc3c2CCC2(CCCc4ccc(F)cc42)C3)C[C@@H]1CC#N` (stereo partly drawn) [Cpd. No. 11, 2-((2S)-1-acryloyl-4-(7-fluoro-2′-(((S)-1-methylpyrrolidin-2-yl)methoxy)-3,4,5′,8′-tetrahydro-2H,6′H-spiro[naphthalene-1,7′-quinazolin]-4′-yl)piperazin-2-yl)acetonitrile], the IC50 in the experiment on MIA PaCa-2 cell came to 110 nM; with NCI-H358 cell, 200 nM.
Regarding `C=CC(=O)N1CCN(c2nc(OC[C@@H]3CCCN3C)nc3c2CCC2(CCc4ccc(C)cc42)C3)C[C@@H]1CC#N` (stereo partly drawn) [Cpd. No. 12, 2-((2S)-1-acryloyl-4-(6-methyl-2′-(((S)-1-methylpyrrolidin-2-yl)methoxy)-2,3,5′,8′-tetrahydro-6′H-spiro[indene-1,7′-quinazolin]-4′-yl)piperazin-2-yl)acetonitrile], the figures for the IC50 with MIA PaCa-2 cell and in the experiment with NCI-H358 cell were 55 nM and 65 nM, respectively.
For `C=C(F)C(=O)N1CCN(c2nc(OC[C@@H]3CCCN3C)nc3c2CCC2(CCCc4ccccc42)C3)C[C@@H]1CC#N` (stereo partly drawn) [Cpd. No. 13, 2-((2S)-1-(2-fluoroacryloyl)-4-(2′-(((S)-1-methylpyrrolidin-2-yl)methoxy)-3,4,5′,8′-tetrahydro-2H,6′H-spiro[naphthalene-1,7′-quinazolin]-4′-yl)piperazin-2-yl)acetonitrile], in that order: 220 nM and 290 nM.
Consider `C/C=C/C(=O)N1CCN(c2nc(OC[C@@H]3CCCN3C)nc3c2CCC2(CCCc4ccccc42)C3)C[C@@H]1CC#N` (stereo partly drawn) [Cpd. No. 14, 2-((2S)-1-((E)-but-2-enoyl)-4-(2′-(((S)-1-methylpyrrolidin-2-yl)methoxy)-3,4,5′,8′-tetrahydro-2H,6′H-spiro[naphthalene-1,7′-quinazolin]-4′-yl)piperazin-2-yl)acetonitrile], for which the IC50 in the experiment with MIA PaCa-2 cell and in the experiment on NCI-H358 cell was 1670 nM each time.
With `CN(C)C/C=C/C(=O)N1CCN(c2nc(OC[C@@H]3CCCN3C)nc3c2CCC2(CCCc4ccccc42)C3)C[C@@H]1CC#N` (stereo partly drawn) [Cpd. No. 15, 2-((2S)-1-((E)-4-(dimethylamino)but-2-enoyl)-4-(2′-(((S)-1-methylpyrrolidin-2-yl)methoxy)-3,4,5′,8′-tetrahydro-2H,6′H-spiro[naphthalene-1,7′-quinazolin]-4′-yl)piperazin-2-yl)acetonitrile], the IC50 with MIA PaCa-2 cell worked out at 290 nM; with NCI-H358 cell, 510 nM.
With `C=CS(=O)(=O)N1CCN(c2nc(OC[C@@H]3CCCN3C)nc3c2CCC2(CCCc4ccccc42)C3)C[C@@H]1CC#N` (stereo partly drawn) [Cpd. No. 16, 2-((2S)-4-(2′-(((S)-1-methylpyrrolidin-2-yl)methoxy)-3,4,5′,8′-tetrahydro-2H,6′H-spiro[naphthalene-1,7′-quinazolin]-4′-yl)-1-(vinylsulfonyl)piperazin-2-yl)acetonitrile], the IC50 in the experiment with MIA PaCa-2 cell turned out to be 2960 nM; with NCI-H358 cell it was 1900 nM.
Turning to `C=CC(=O)N1CCN(c2nc(OCCCN(C)C)nc3c2CCC2(CCCc4ccccc42)C3)C[C@@H]1CC#N` (stereo partly drawn) [Cpd. No. 17, 2-((2S)-1-acryloyl-4-(2′-(3-(dimethylamino)propoxy)-3,4,5′,8′-tetrahydro-2H,6′H-spiro[naphthalene-1,7′-quinazolin]-4′-yl)piperazin-2-yl)acetonitrile], the IC50 in the experiment on MIA PaCa-2 cell was determined as 54 nM; in the experiment on NCI-H358 cell it was 100 nM.
As to `C=CC(=O)N1CCN(c2nc(OC[C@@H]3CCCCN3C)nc3c2CCC2(CCCc4ccccc42)C3)C[C@@H]1CC#N` (stereo partly drawn) [Cpd. No. 18, 2-((2S)-1-acryloyl-4-(2′-(((S)-1-methylpiperidin-2-yl)methoxy)-3,4,5′,8′-tetrahydro-2H,6′H-spiro[naphthalene-1,7′-quinazolin]-4′-yl)piperazin-2-yl)acetonitrile], the IC50 turned out to be 110 nM in the experiment on MIA PaCa-2 cell and 160 nM in the experiment with NCI-H358 cell.
The matching figures for `C=CC(=O)N1CCN(c2nc(OCCCN3CCOCC3)nc3c2CCC2(CCCc4ccccc42)C3)C[C@@H]1CC#N` (stereo partly drawn) [Cpd. No. 19, 2-((2S)-1-acryloyl-4-(2′-(3-morpholinopropoxy)-3,4,5′,8′-tetrahydro-2H,6′H-spiro[naphthalene-1,7′-quinazolin]-4′-yl)piperazin-2-yl)acetonitrile]: 110 nM and 130 nM.
Turning to `C=CC(=O)N1CCN(c2nc(OC[C@@H]3CN(C)CCO3)nc3c2CCC2(CCCc4ccccc42)C3)C[C@@H]1CC#N` (stereo partly drawn) [Cpd. No. 20, 2-((2S)-1-acryloyl-4-(2′-(((S)-4-methylmorpholin-2-yl)methoxy)-3,4,5′,8′-tetrahydro-2H,6′H-spiro[naphthalene-1,7′-quinazolin]-4′-yl)piperazin-2-yl)acetonitrile], the results for the IC50 in the experiment with MIA PaCa-2 cell and in the experiment with NCI-H358 cell were 46 nM and 72 nM, respectively.
With `C=CC(=O)N1CCN(c2nc(OC[C@@H]3CCCN3C)nc3c2CCC2(CCOc4ccccc42)C3)C[C@@H]1CC#N` (stereo partly drawn) [Cpd. No. 21, 2-((2S)-1-acryloyl-4-(2′-(((S)-1-methylpyrrolidin-2-yl)methoxy)-5′,8′-dihydro-6′H-spiro[chromane-4,7′-quinazolin]-4′-yl)piperazin-2-yl)acetonitrile], the values for the IC50 with MIA PaCa-2 cell and with NCI-H358 cell were 440 nM and 470 nM, respectively.
